Results published in PMC10047683, “A Novel Family of Lysosomotropic Tetracyclic Compounds for Treating Leukemia” (Cancers, 2023).

Experiments:
[1] = test system: primary AML samples; assay: Cytotoxicity in primary AML samples (flow cytometry, blast gate); format: cell-based, human
Description: (§1) Primary AML samples were obtained at diagnosis from patients diagnosed at Hospital Clínic of Barcelona (Spain) and Hospital Germans Trias i Pujol (Badalona, Spain). AML diagnosis, classification, and risk stratification were based on the latest revised WHO criteria (Supplementary Table S1). Clinical characteristics of AML patients are summarized in Supplementary Table S1. Mononuclear cells (MNCs) were isolated with Ficoll density gradient centrifugation (GE Healthcare, Chicago, IL, USA). All patients provided their written informed consent in accordance with the Declaration of Helsinki, and the study was approved by the corresponding ethics committees. Mature blood MNCs were isolated from healthy donors’ buffy coats provided by Banc de Sang i Teixits (BSiT, Barcelona, Spain). Umbilical-cord blood was provided by BSiT, and MNCs were depleted for lineage marker-positive cells using magnetic separation with the Human Lineage Cell Depletion kit (Miltenyi Biotec, North Rhine-Westphalia, Germany) following the manufacturer’s recommendations.
(§2) First, 2 × 10^5 (72 h assays in cell lines (Supplementary File S1)), 3 × 10^5 (48 h assays in cell lines) or 7.5 × 10^5 (primary AML, healthy donor buffy coats) cells per mL were cultured in 96-well plates, and all drugs were added at the indicated concentrations. In α-tocopherol experiments, cells were treated with growing concentrations of α-tocopherol and EDK drugs for 48 h. In the NAC and 3MA experiments, treatment was simultaneous with EDK compounds. In glucose deprivation experiments, cells were cultivated with a standard medium (glucose high, 2 g/L), a standard medium without glucose, or a standard medium with galactose (2 g/L) and without glucose. Cell viability was measured via 7-AAD (eBioscience) exclusion and Hoechst33342 (Sigma-Aldrich, St. Louis, MO, USA) positivity staining via flow cytometry, and the cell count was obtained through volume. In the experiments with the primary cells, analyses were performed inside the blast population as detected via blast gates (CD45^low SSC^int). For solid tumor cell lines, viability was analyzed using CellTiter-Glo® Luminescent Cell Viability Assay (Promega).

[2] = test system: KG-1; assay: 7AAD and annexin-V staining, flow cytometry; format: cell-based; conditions: 10 µM, 24 h, representative plot
Experimental: (§3) Seahorse studies were performed using the Agilent Seahorse XF Real-Time ATP Rate Assay Kit. Briefly, MonoMac1 and HL60 cells were suspended in complete medium at a concentration of 5 × 10^5 cells per ml and treated with EDK-87/EDK-88 with the indicated compounds for 18 h. Cells were washed and suspended in Seahorse medium (Seahorse XF medium with 2 mM glutamine, 10 mM glucose, 2 mM pyruvate) at a concentration of 1.4 × 10^6 (Mono Mac1) and 2.4 × 10^6 (HL60) cells per mL; 50 μL per well were seeded in 96-well Seahorse plates precoated with polylysine, centrifuged, and left to adhere for 20 min at 37 °C before adding prewarmed Seahorse medium to a final volume of 180 μL per well. Basal OCR and ECAR were measured, and the ATP rate assay was performed with the sequential injection of 1.5 μM oligomycin and 0.5 μM rotenone/antimycin A. A detailed description of this protocol was provided by the manufacturers. Mitochondrial ROS was quantified using the MitoSOX Red Mitochondrial Superoxide Indicator (Thermo Fischer Scientific, Waltham, MA, USA), as previously described. The activation of executive caspases was determined using CaspaseGlo® 3/7 Assay (Promega), following the manufacturer’s recommendations. The detection of Annexin-V staining was also described previously.

[3] = test system: MonoMac-1; assay: 7AAD and annexin-V staining, flow cytometry; format: cell-based; conditions: 10 µM, 24 h, representative plot
Experimental: as §3

[4] = test system: peripheral blood mononuclear cells from healthy donors' buffy coats; assay: Cytotoxicity in healthy donor blood cells; format: cell-based, human; conditions: 72 h
Description: as §1, §2

[5] = Pharmacokinetic study in mice; format: in vivo, CD-1 mice; conditions: 30 mg/kg orally and subcutaneously
Experimental: All ADMET studies were performed in Eurofins Discovery Services (CEREP laboratories, Celle-Lévescault France). The pharmacokinetic studies were performed in Draconis Pharma SL (Barcelona, Spain) in CD-1 mice treated with 30 mg/kg EDK87 or EDK88 via SC or OG. Blood was collected by cardiac puncture at 0.5, 1, 2, 4, or 24 h.

CN1CCC(=C2c3ccccc3-c3c2sc2ccccc32)CC1 [EDK-87]
reduced the numbers of primary leukemic cells ([1]; 14 primary AML samples, 72 h, EDK-87 10 and 25 µM, EDK-88 5 and 10 µM assayed): 43% ± 8.5 | # Live cells refer to control ([1]; AML sample #61, 5 µM, 72 h): 112% | # Live cells refer to control ([1]; AML sample #61, 10 µM, 72 h): 107% | # Live cells refer to control ([1]; AML sample #61, 25 µM, 72 h): 47% | # Live cells refer to control ([1]; AML sample #63, 5 µM, 72 h): 71% | # Live cells refer to control ([1]; AML sample #63, 10 µM, 72 h): 37% | # Live cells refer to control ([1]; AML sample #63, 25 µM, 72 h): 13% | # Live cells refer to control ([1]; AML sample #98, 5 µM, 72 h): 59% | # Live cells refer to control ([1]; AML sample #98, 10 µM, 72 h): 26% | # Live cells refer to control ([1]; AML sample #98, 25 µM, 72 h): 5% | # Live cells refer to control ([1]; AML sample #130, 5 µM, 72 h): 97% | # Live cells refer to control ([1]; AML sample #130, 10 µM, 72 h): 97% | # Live cells refer to control ([1]; AML sample #130, 25 µM, 72 h): 35% | # Live cells refer to control ([1]; AML sample #132, 5 µM, 72 h): 74% | # Live cells refer to control ([1]; AML sample #132, 10 µM, 72 h): 60% | # Live cells refer to control ([1]; AML sample #133, 5 µM, 72 h): 60% | # Live cells refer to control ([1]; AML sample #133, 10 µM, 72 h): 19% | # Live cells refer to control ([1]; AML sample #134, 5 µM, 72 h): 97% | # Live cells refer to control ([1]; AML sample #134, 10 µM, 72 h): 89% | # Live cells refer to control ([1]; AML sample #135, 5 µM, 72 h): 94% | # Live cells refer to control ([1]; AML sample #135, 10 µM, 72 h): 80% | # Live cells refer to control ([1]; AML sample #135, 25 µM, 72 h): 14% | # Live cells refer to control ([1]; AML sample #136, 5 µM, 72 h): 97% | # Live cells refer to control ([1]; AML sample #136, 10 µM, 72 h): 51% | # Live cells refer to control ([1]; AML sample #136, 25 µM, 72 h): 2% | # Live cells refer to control ([1]; AML sample #141, 5 µM, 72 h): 77% | # Live cells refer to control ([1]; AML sample #141, 10 µM, 72 h): 52% | # Live cells refer to control ([1]; AML sample #147, 5 µM, 72 h): 17% | # Live cells refer to control ([1]; AML sample #148, 5 µM, 72 h): 47% | # Live cells refer to control ([1]; AML sample #148, 10 µM, 72 h): 5% | # Live cells refer to control ([1]; AML sample #152, 5 µM, 72 h): 83% | # Live cells refer to control ([1]; AML sample #152, 10 µM, 72 h): 56% | # Live cells refer to control ([1]; AML sample #153, 5 µM, 72 h): 78% | # Live cells refer to control ([1]; AML sample #153, 10 µM, 72 h): 65% | therapeutic window (viability) ([1]; primary AML vs healthy-donor blood cells): 2.4 | Q1 of 7AAD/annexin V plot [2]: 0.61 | Q2 of 7AAD/annexin V plot [2]: 10.0 | Q3 of 7AAD/annexin V plot [2]: 50.3 | Q4 of 7AAD/annexin V plot [2]: 39.1 | Q1 of 7AAD/annexin V plot [3]: 2.96 | Q2 of 7AAD/annexin V plot [3]: 9.41 | Q3 of 7AAD/annexin V plot [3]: 21.7 | Q4 of 7AAD/annexin V plot [3]: 65.9 | healthy-donor blood cells affected ([4]; 9 healthy donors, EDK-87 10 and 25 µM, EDK-88 5 and 10 µM assayed): 33.2% ± 8.1 | # Live cells refer to control ([4]; BC sample #20, 5 µM): 140% | # Live cells refer to control ([4]; BC sample #20, 10 µM): 113% | # Live cells refer to control ([4]; BC sample #26, 5 µM): 78% | # Live cells refer to control ([4]; BC sample #26, 10 µM): 65% | # Live cells refer to control ([4]; BC sample #31, 5 µM): 83% | # Live cells refer to control ([4]; BC sample #31, 10 µM): 56% | # Live cells refer to control ([4]; BC sample #32, 5 µM): 81% | # Live cells refer to control ([4]; BC sample #32, 10 µM): 41% | # Live cells refer to control ([4]; BC sample #32, 25 µM): 72% | # Live cells refer to control ([4]; BC sample #41, 5 µM): 77% | # Live cells refer to control ([4]; BC sample #41, 10 µM): 87% | # Live cells refer to control ([4]; BC sample #44, 5 µM): 74% | # Live cells refer to control ([4]; BC sample #44, 10 µM): 76% | # Live cells refer to control ([4]; BC sample #44, 25 µM): 80% | # Live cells refer to control ([4]; BC sample #51, 5 µM): 101% | # Live cells refer to control ([4]; BC sample #51, 10 µM): 77% | # Live cells refer to control ([4]; BC sample #59, 5 µM): 89% | # Live cells refer to control ([4]; BC sample #59, 10 µM): 41% | # Live cells refer to control ([4]; BC sample #59, 25 µM): 13% | # Live cells refer to control ([4]; BC sample #63, 5 µM): 92% | # Live cells refer to control ([4]; BC sample #63, 10 µM): 45% | # Live cells refer to control ([4]; BC sample #63, 25 µM): 22% | clearance (PK) [5]: high | plasma level [5]: low | volume of distribution [5]: high
